# Results reported in ChEMBL document CHEMBL3120136 (J Med Chem, 2014).
# *1 amine or outer side, *2 acyl side, *3 side chain or, on linkers, in order; H or OH if unused. Where a SMILES comes first, the peptide text is derived from it. Side-chain parts run from the residue outwards. [ ]: non-standard residue; d: D form. The star is where a group is joined. Ac3c(1R,2S-2-vinyl) = C=C[C@@H]1C[C@]1(N)C(=O)O; NH(1-naphthylmethyl) = c1ccc2c(CN*)cccc2c1; NH(1-naphthyl) = c1ccc2c(N*)cccc2c1; Hyp = O=C(O)[C@@H]1C[C@@H](O)CN1; Chg = N[C@H](C(=O)O)C1CCCCC1; X2 = c1ccc(C2CN(*)CCO2)cc1; X3 = c1ccc(C2CCN(*)C2)cc1; Morpholide = C1CN(*)CCO1; Piperidide = C1CCN(*)CC1; Pyrrolidide = C1CCN(*)C1; X4 = c1ccc(C2COCCN2*)cc1; X5 = c1ccc2c(c1)CN(*)C2; X1 = c1ccc2c(c1)CCN2*; CO = O=C([*:1])[*:2]
# What was measured:
# [1] = Inhibition of Hepatitis C virus full-length NS3/4A protease assessed as quenched-fluorogenic RET-S1 substrate cleavage incubated for 10 mins prior to substrate addition by FRET analysis; parameters: species or system Hepacivirus hominis
# [2] = test system: Hepatitis C virus; experiment: Antiviral activity against Hepatitis C virus infected in human HuH7 cells assessed as inhibition of HCV subgenomic replicon replication after 72 hrs by ELISA; type: functional, organism-based, Hepacivirus hominis, Huh-7; settings: Hepatitis C virus, Huh-7, 72 h; read-out: EC50
SMILES,IC50 [1] [µM],EC50 [2] [µM]
CC(C)(C)OC(=O)N[C@H]1CCC(F)(F)CCCC[C@@H]2C[C@@]2(C(=O)NS(=O)(=O)C2CC2)NC(=O)[C@@H]2C[C@@H](OC(=O)N3Cc4cccc(F)c4C3)CN2C1=O,0.0008,0.0068
CC(C)(C)OC(=O)N[C@H]1CCCC(F)(F)CCC[C@@H]2C[C@@]2(C(=O)NS(=O)(=O)C2CC2)NC(=O)[C@@H]2C[C@@H](OC(=O)N3Cc4cccc(F)c4C3)CN2C1=O,0.0013,0.046
CC(C)(C)OC(=O)N[C@H]1CCCCC/C=C\[C@@H]2C[C@@]2(C(=O)NS(=O)(=O)C2CC2)NC(=O)[C@@H]2C[C@@H](NC(=O)N3CCc4ccccc4C3)CN2C1=O,0.0029,0.362
CC(C)(C)OC(=O)N[C@H]1CCCCC/C=C\[C@@H]2C[C@@]2(C(=O)NS(=O)(=O)C2CC2)NC(=O)[C@@H]2C[C@@H](NC(=O)N3Cc4ccccc4C3)CN2C1=O,0.0023,0.047
CC(C)(C)OC(=O)N[C@H]1CCCCCC[C@@H]2C[C@@]2(C(=O)NS(=O)(=O)C2CC2)NC(=O)[C@@H]2C[C@@H](OC(=O)N3Cc4cccc(F)c4C3)CN2C1=O,0.0015,0.0225
CC(C)(C)OC(=O)N[C@H]1CCCCCCC[C@@H]2C[C@@]2(C(=O)NS(=O)(=O)C2CC2)NC(=O)[C@@H]2C[C@@H](OC(=O)N3Cc4cccc(F)c4C3)CN2C1=O,0.0007,0.0058
CC(C)(C)OC(=O)N[C@H]1COCCC/C=C\[C@@H]2C[C@@]2(C(=O)NS(=O)(=O)C2CC2)NC(=O)[C@@H]2C[C@@H](OC(=O)N3Cc4cccc(F)c4C3)CN2C1=O,0.0018,0.0702
CC(C)(C)OC(=O)N[C@H]1CCOCC/C=C\[C@@H]2C[C@@]2(C(=O)NS(=O)(=O)C2CC2)NC(=O)[C@@H]2C[C@@H](OC(=O)N3Cc4cccc(F)c4C3)CN2C1=O,0.0012,0.033
CC(C)(C)OC(=O)N[C@H]1CCCOC/C=C\[C@@H]2C[C@@]2(C(=O)NS(=O)(=O)C2CC2)NC(=O)[C@@H]2C[C@@H](OC(=O)N3Cc4cccc(F)c4C3)CN2C1=O,0.0008,0.155
CC(C)(C)OC(=O)N[C@H]1COCCCCC[C@@H]2C[C@@]2(C(=O)NS(=O)(=O)C2CC2)NC(=O)[C@@H]2C[C@@H](OC(=O)N3Cc4cccc(F)c4C3)CN2C1=O,0.0012,0.0124
O=C(N[C@H]1CCCCC/C=C\[C@@H]2C[C@@]2(C(=O)NS(=O)(=O)C2CC2)NC(=O)[C@@H]2C[C@@H](OC(=O)N3CCc4ccccc4C3)CN2C1=O)OC1CCCC1,0.001,0.006
"C=C[C@@H]1C[C@]1(NC(=O)[C@@H]1C[C@@H](OC(=O)N2CCOCC2)CN1C(=O)[C@@H](NC(=O)[C@@H](NC(C)=O)C1CCCCC1)C(C)C)C(=O)O (Ac-[Chg]V[Hyp]([CO-Morpholide])[Ac3c(1R,2S-2-vinyl)]-OH)",47.1,
"C=C[C@@H]1C[C@]1(NC(=O)[C@@H]1C[C@@H](OC(=O)Nc2cccc3ccccc23)CN1C(=O)[C@@H](NC(=O)[C@@H](NC(C)=O)C1CCCCC1)C(C)C)C(=O)O (Ac-[Chg]V[Hyp]([CO-NH(1-naphthyl)])[Ac3c(1R,2S-2-vinyl)]-OH)",0.818,
"C=C[C@@H]1C[C@]1(NC(=O)[C@@H]1C[C@@H](OC(=O)NCc2cccc3ccccc23)CN1C(=O)[C@@H](NC(=O)[C@@H](NC(C)=O)C1CCCCC1)C(C)C)C(=O)O (Ac-[Chg]V[Hyp]([CO-NH(1-naphthylmethyl)])[Ac3c(1R,2S-2-vinyl)]-OH)",0.835,
"C=C[C@@H]1C[C@]1(NC(=O)[C@@H]1C[C@@H](OC(=O)N2CCCCC2)CN1C(=O)[C@@H](NC(=O)[C@@H](NC(C)=O)C1CCCCC1)C(C)C)C(=O)O (Ac-[Chg]V[Hyp]([CO-Piperidide])[Ac3c(1R,2S-2-vinyl)]-OH)",4.29,
"C=C[C@@H]1C[C@]1(NC(=O)[C@@H]1C[C@@H](OC(=O)N2CCCC2)CN1C(=O)[C@@H](NC(=O)[C@@H](NC(C)=O)C1CCCCC1)C(C)C)C(=O)O (Ac-[Chg]V[Hyp]([CO-Pyrrolidide])[Ac3c(1R,2S-2-vinyl)]-OH)",14.9,
"C=C[C@@H]1C[C@]1(NC(=O)[C@@H]1C[C@@H](OC(=O)N2CCc3ccccc32)CN1C(=O)[C@@H](NC(=O)[C@@H](NC(C)=O)C1CCCCC1)C(C)C)C(=O)O (Ac-[Chg]V[Hyp]([CO-X1])[Ac3c(1R,2S-2-vinyl)]-OH)",0.2,
"C=C[C@@H]1C[C@]1(NC(=O)[C@@H]1C[C@@H](OC(=O)N2CCOC(c3ccccc3)C2)CN1C(=O)[C@@H](NC(=O)[C@@H](NC(C)=O)C1CCCCC1)C(C)C)C(=O)O (stereo partly drawn) (Ac-[Chg]V[Hyp]([CO-X2])[Ac3c(1R,2S-2-vinyl)]-OH)",4.77,
"C=C[C@@H]1C[C@]1(NC(=O)[C@@H]1C[C@@H](OC(=O)N2CCC(c3ccccc3)C2)CN1C(=O)[C@@H](NC(=O)[C@@H](NC(C)=O)C1CCCCC1)C(C)C)C(=O)O (stereo partly drawn) (Ac-[Chg]V[Hyp]([CO-X3])[Ac3c(1R,2S-2-vinyl)]-OH)",0.735,
"C=C[C@@H]1C[C@]1(NC(=O)[C@@H]1C[C@@H](OC(=O)N2CCOCC2c2ccccc2)CN1C(=O)[C@@H](NC(=O)[C@@H](NC(C)=O)C1CCCCC1)C(C)C)C(=O)O (stereo partly drawn) (Ac-[Chg]V[Hyp]([CO-X4])[Ac3c(1R,2S-2-vinyl)]-OH)",5.5,
"C=C[C@@H]1C[C@]1(NC(=O)[C@@H]1C[C@@H](OC(=O)N2Cc3ccccc3C2)CN1C(=O)[C@@H](NC(=O)[C@@H](NC(C)=O)C1CCCCC1)C(C)C)C(=O)O (Ac-[Chg]V[Hyp]([CO-X5])[Ac3c(1R,2S-2-vinyl)]-OH)",0.186,
